This test relates to EBTr [NBL-4] cells derived from bovine embryonic trachea. The experiment in a line: cAMP production promoting action in EBTr [NBL-4] cell derived from bovine embryonic trachea. It is filed as cell-based. The conditions noted are these: for EC50: concentration producing 50% of the cAMP amount obtained with 10 μM PGD2 (=100%), 15 minutes with test compound and 0.5 mM 3-isobutyl-1-methylxanthine; for cAMP production promoting action (in words): conclusion drawn from Table 1. How it is done: Experiment [Measurement of cAMP production promoting action in EBTr [NBL-4] cell derived from bovine embryonic trachea]
According to the method of Ito et al. in Br. J. Pharmacol., vol. 99, page 13-14 (1990), the following test was carried out.
That is, EBTr [NBL-4] cells derived from bovine embryonic trachea (produced by Dainippon Pharmaceutical Co.) were inoculated on 24-well plates (6×10^4 cells/well) (manufactured by Sumitomo Bakelite Co.), and cultured on a growth medium (MEM Earle's medium including 10% calf serum, 2mM glutamine and non-essential amino acids) for 48 hours, followed by cultivation on 0.5 ml of a growth medium including the test compound and 0.5 mM 3-isobutyl-1-methylxanthine) for 15 minutes. After the completion of the reaction, the cells were washed with a phosphate buffer (not including Ca++ and Mg++), 0.6 ml of 65% aqueous ethanol solution was added, followed by allowing to stand at 4° C. for an hour, and the resulting cAMP was extracted. After evaporation of the solvent by a centrifugal evaporator, the amount of cAMP was measured by using a cAMP EIA System (manufactured by Amersham Co.).
When an amount of cAMP obtained by adding PGD2 in a concentration of 10 μM was regarded as 100%, a concentration required to produce 50% of the amount of cAMP was measured as EC50.
(note) Compounds 19 and 97 are those prepared in the examples as described above. The test compounds were each used as a form of an ethanol solution, and compared with a vehicle-treated group as a control.
On the technique in general: Changes in cAMP serve as a functional read-out for many G protein-coupled receptors.

The EC50 is the concentration at which the effect is half-maximal. Low readings indicate an effect from little substance, high ones a need for much substance.

For `O=C(O)CCCCSCC1C(Cl)CC(O)C1C#CC(O)C1CCCCC1` (stereo not drawn) [Compound 19, 6-Thia-9-deoxy-9β-chloro-16,17,18,19,20-pentanor-15-cyclohexyl-13,14-didehydro-PGF1α], the midpoint of the response, the EC50, lay at 17.3 nM and the “cAMP production promoting action (in words)” value is reported as “strong cAMP production promoting action”. Regarding `CCCCC[C@H](O)/C=C/[C@H]1C(=O)C[C@H](O)[C@@H]1C/C=C\CCCC(=O)O` [PGD2, reference compound], it took 124 nM to reach a half-maximal effect (EC50). As for `O=C(O)COCCSCC1C(Cl)CC(O)C1C#CC(O)C1CCCCC1` (stereo not drawn) [Compound 97, 3-Oxa-6-thia-9β-chloro-13,14-didehydro-16,17,18,19,20-pentanor-15-cyclohexyl-9-deoxy-PGF1α], it took 5.13 nM to reach a half-maximal effect (EC50) and the “cAMP production promoting action (in words)” value is “strong cAMP production promoting action”.

Source of the values: US6740772B1, “Prostaglandin derivatives” (Taisho Pharmaceutical Co., Ltd., priority 1999, dated 2004).
